Values joined by “and” are separate entries in the source; they are usually repeats but may differ in a detail not shown here. Equal values may be shown once.
Assays:
Heymann-type Nephritis = experiment: Therapeutic effects on Heymann-type nephritis (proteinuria); format: in vivo, male Wistar rats; settings: for amount of proteinurea, Average: average of 3 replications; for amount of proteinurea: individual replication
Procedure: Male Wistar rats with a body weight of 180 to 200 g were used in the test. Rat kidney cortex was extracted, and homogenized with an equal quantity by volume of a physiological saline solution. The homogenate was centrifuged at 1500 G for 1 hour. The supernatant liquid was purified in accordance with the method of T. S. […] The resulting mixture was injected intraperitoneally into isologous rats in an amount of 0.5 ml per rat. […] (This period was about 6 to 8 weeks.) […] CP was used as a comparison compound, and physiological saline solution was used as a control. Three replications were conducted for each test compound.

[1] = Acute toxicity on intravenous administration to mice; settings: mouse, in vivo
[2] = test system: Nephrotoxin-Type Nephritis; experiment: Therapeutic effect on nephrotoxin-type nephritis (proteinuria); format: in vivo, male Wistar rats; settings: for amount of proteinurea, Average: average of 3 replications; for amount of proteinurea, Average / amount of proteinurea: 7 days; for amount of proteinurea: individual replication
From the text: Rat nephrotoxin ("NT" for brevity) was obtained as described below. Rat kidney cortex was homogenized with an equal quantity of physiological saline. The homogenized mixture was mixed with Freund's complete adjuvant (a product of Difco Company) in a volume ratio of 1:1. Two milliliters of the resulting mixture was intramuscularly injected into a rabbit (body weight 3,100 g) to immunize the rabbit. A month and a half later, blood was taken from the heart of the rabbit and serum was obtained. The resulting serum was inactivated at 56° C. for 30 minutes, then salted out with a 40% saturated aqueous solution of ammonium sulfate, and fractionated. The γ-globulin (IgG) fraction was collected to obtain NT.
The evaluation was carried out using male Wistar rats with a body weight of 150 to 160 g with three replications for each test compound. The test compound was intraperitoneally administered once every 24 hours for seven days. One hour after the administration of the test compound on the third day, the NT was applied. The NT was intravenously injected in an amount of 1 ml at a tail vein of each rat. Chlorophyllin (CP) was used as a comparison compound, and physiological saline solution was used as a control.
The proteinuria level (total amount excreted into the urine over a 24 hour period) was measured using turbidometry employing bovine serum albumin as a control by means of sulfosalicylic acid.

[3] = test system: complement serum (guinea pig complement); experiment: Anti-complement activity: 50% inhibition of hemolysis of sensitized erythrocytes; format: cell-based; settings: 37° C., 60 minutes, guinea pig complement diluted 150 times; for IC50: Cavia porcellus, Erythrocyte, 1 h, OD413, read-out: Anti-Complement Activity Value (50% hemolysis inhibitory activity value)
Procedure: The anti-complement activity was measured and confirmed by the testing method described in Meneki Kagaku (Immuno-Chemistry), Yuichi Yamamura et al., Ed. pages 830-834, Asakura Shoten, Tokyo, Japan (1973). Specifically,a test tube was charged with 0.5 ml of an aqueous dispersion of each of the test compounds, 0.5 ml of sensitized erythrocytes (EA) containing 1×10^8 cells/ml, 1 ml of a 5-fold diluted solution of a Veronal buffer solution containing gelatin, Ca^++ and Mg^++ (GVB^++), and 0.5 ml of complement serum (guinea pig complement) diluted to 150 times with the GVB^++. The mixture was maintained hot at 37° C. for 60 minutes. Then, 5 ml of an ice-cold physiological saline solution was added thereto, and the mixture was centrifuged. […] The 50% hemolysis inhibitory activity value (γ/ml) measured by the above method is shown in Table 2 below for each test compound.

[4] = Before Administration, group of 3 mg per rat i.p.
[5] = Day 1, 3 mg per rat i.p. once a day, 7 days
[6] = Day 4, 3 mg per rat i.p. once a day, 7 days
[7] = Day 7, 3 mg per rat i.p. once a day, 7 days
[8] = Day 14, 3 mg per rat i.p. once a day, 7 days
[9] = Day 21, 3 mg per rat i.p. once a day, 7 days
[10] = Day 1, 3 mg per rat i.p. once daily
[11] = Day 4, 3 mg per rat i.p. once daily
[12] = Day 7, 3 mg per rat i.p. once daily
[13] = Day 10, 3 mg per rat i.p. once daily
[14] = Before Administration, group of 5 mg per rat i.p.
[15] = Day 1, 5 mg per rat i.p. once a day, 7 days
[16] = Day 4, 5 mg per rat i.p. once a day, 7 days
[17] = Day 7, 5 mg per rat i.p. once a day, 7 days
[18] = Day 14, 5 mg per rat i.p. once a day, 7 days
[19] = Day 21, 5 mg per rat i.p. once a day, 7 days
[20] = Day 1, 5 mg per rat i.p. once daily
[21] = Day 4, 5 mg per rat i.p. once daily
[22] = Day 7, 5 mg per rat i.p. once daily
[23] = Day 10, 5 mg per rat i.p. once daily

| Molecule | LD50 [1] [mg/kg] | IC50 [3] [µg/mL] | amount of proteinurea, Average (Heymann-type Nephritis; [14]) [mg/day] | amount of proteinurea (Heymann-type Nephritis; [14]) | amount of proteinurea, Average (Heymann-type Nephritis; [15]) [mg/day] | amount of proteinurea (Heymann-type Nephritis; [15]) | amount of proteinurea, Average (Heymann-type Nephritis; [16]) [mg/day] | amount of proteinurea (Heymann-type Nephritis; [16]) | amount of proteinurea, Average (Heymann-type Nephritis; [17]) [mg/day] | amount of proteinurea (Heymann-type Nephritis; [17]) | amount of proteinurea, Average (Heymann-type Nephritis; [18]) [mg/day] | amount of proteinurea (Heymann-type Nephritis; [18]) | amount of proteinurea, Average (Heymann-type Nephritis; [19]) [mg/day] | amount of proteinurea (Heymann-type Nephritis; [19]) | amount of proteinurea, Average [2, 20] [mg/day] | amount of proteinurea [2, 20] | amount of proteinurea, Average [2, 21] [mg/day] | amount of proteinurea [2, 21] | amount of proteinurea, Average [2, 22] [mg/day] | amount of proteinurea [2, 22] | other results |
| --- | --- | --- | --- | --- | --- | --- | --- | --- | --- | --- | --- | --- | --- | --- | --- | --- | --- | --- | --- | --- | --- |
| CC1CCC2C(C)(C)C(O)C(O)CC2(C)C12Cc1c(O)cc(C=O)c(C=O)c1O2 (stereo not drawn) [(1), 6,7-Dihydroxy-2,5,5,8a-tetramethyl-1,2,3,4,4a,5,6,7,8,8a-decahydronaphthalene-1-spiro-2'-(6',7'-diformyl-4'-hydroxy-2',3'-dihydrobenzofuran)] | 40 | 10 |  |  |  |  |  |  |  |  |  |  |  |  |  |  |  |  |  |  | amount of proteinurea, Average (Heymann-type Nephritis; [4]): 116 mg/day; amount of proteinurea (Heymann-type Nephritis; [4]): 95 mg/day and 132 mg/day and 121 mg/day; amount of proteinurea, Average (Heymann-type Nephritis; [5]): 111 mg/day; amount of proteinurea (Heymann-type Nephritis; [5]): 90 mg/day and 125 mg/day and 120 mg/day; amount of proteinurea, Average (Heymann-type Nephritis; [6]): 61 mg/day; amount of proteinurea (Heymann-type Nephritis; [6]): 47 mg/day and 65 mg/day and 70 mg/day; amount of proteinurea, Average (Heymann-type Nephritis; [7]): 26 mg/day; amount of proteinurea (Heymann-type Nephritis; [7]): 17 mg/day and 35 mg/day and 27 mg/day; amount of proteinurea, Average (Heymann-type Nephritis; [8]): 11 mg/day; amount of proteinurea (Heymann-type Nephritis; [8]): 9 mg/day and 15 mg/day and 10 mg/day; amount of proteinurea, Average (Heymann-type Nephritis; [9]): 10 mg/day; amount of proteinurea (Heymann-type Nephritis; [9]): 10 mg/day and 12 mg/day and 9 mg/day; amount of proteinurea, Average [2, 10]: 2.8 mg/day; amount of proteinurea [2, 10]: 2.5 mg/day and 4.3 mg/day and 1.7 mg/day; amount of proteinurea, Average [2, 11]: 1.6 mg/day; amount of proteinurea [2, 11]: 1.5 mg/day and 2.1 mg/day and 1.1 mg/day; amount of proteinurea, Average [2, 12]: 1.2 mg/day; amount of proteinurea [2, 12]: 0.8 mg/day and 1.8 mg/day and 0.9 mg/day; amount of proteinurea, Average [2, 13]: 8 mg/day; amount of proteinurea [2, 13]: 8 mg/day and 10 mg/day and 7 mg/day |
| CC1CCC2C(C)(C)C(O)C(O)CC2(C)C12Cc1c(O)cc(O)c(O)c1O2 (stereo not drawn) [(2), 6,7-Dihydroxy-2,5,5,8a-tetramethyl-1,2,3,4,4a,5,6,7,8,8a-decahydronaphthalene-1-spiro-2'-(4',6',7'-trihydroxy-2',3'-dihydrobenzofuran)] | 150 | 80 |  |  |  |  |  |  |  |  |  |  |  |  |  |  |  |  |  |  |  |
| CC1CCC2C(C)(C)C(O)C(O)CC2(C)C12Cc1c(O)cc(C=C(C#N)C#N)c(C=C(C#N)C#N)c1O2 (stereo not drawn) [(3), 6,7-Dihydroxy-2,5,5,8a-tetramethyl-1,2,3,4,4a,5,6,7,8,8a-decahydronaphthalene-1-spiro-2'-[6',7'-di-(2,2-dicyanovinyl)-4'-hydroxy-2',3'-dihydrobenzofuran]] | 200 | 40 |  |  |  |  |  |  |  |  |  |  |  |  |  |  |  |  |  |  |  |
| CCOC(=O)C(C#N)=Cc1cc(O)c2c(c1C=C(C#N)C(=O)OCC)OC1(C2)C(C)CCC2C(C)(C)C(O)C(O)CC21C (stereo not drawn) [(4), 6,7-Dihydroxy-2,5,5,8a-tetramethyl-1,2,3,4,4a,5,6,7,8,8a-decahydronaphthalene-1-spiro-2'-[6',7'-di-(2-cyano-2-ethoxycarbonylvinyl)-4'-hydroxy-2',3'-dihydrobenzofuran]] | 200 | 80 |  |  |  |  |  |  |  |  |  |  |  |  |  |  |  |  |  |  |  |
| CC1CCC2C(C)(C)C(O)C(O)CC2(C)C12Cc1c(O)cc(C=C(C#N)C(=O)O)c(C=C(C#N)C(=O)O)c1O2 (stereo not drawn) [(6), 6,7-Dihydroxy-2,5,5,8a-tetramethyl-1,2,3,4,4a,5,6,7,8,8a-decahydronaphthalene-1-spiro-2'-[6',7'-di-(2-cyano-2-carboxyvinyl)-4'-hydroxy-2',3'-dihydrobenzofuran]] | 250 | 40 | 121 | 98 mg/day and 127 mg/day and 139 mg/day | 116 | 113 mg/day and 121 mg/day and 116 mg/day | 56 | 48 mg/day and 63 mg/day and 57 mg/day | 37 | 36 mg/day and 47 mg/day and 29 mg/day | 17 | 18 mg/day and 21 mg/day and 13 mg/day | 12 | 8 mg/day and 15 mg/day and 14 mg/day | 2.5 | 2.1 mg/day and 1.5 mg/day and 3.7 mg/day | 1.8 | 1.9 mg/day and 1.2 mg/day and 2.3 mg/day | 1.0 | 0.8 mg/day and 0.9 mg/day and 1.4 mg/day | amount of proteinurea, Average [2, 23]: 10 mg/day; amount of proteinurea [2, 23]: 13 mg/day and 7 mg/day and 9 mg/day |
| Chlorophyllin [reference compound] |  |  | 123 | 123 mg/day and 117 mg/day and 129 mg/day | 115 | 116 mg/day and 108 mg/day and 121 mg/day | 62 | 72 mg/day and 63 mg/day and 52 mg/day | 28 | 32 mg/day and 29 mg/day and 22 mg/day | 14 | 16 mg/day and 12 mg/day and 15 mg/day | 10 | 10 mg/day and 8 mg/day and 13 mg/day | 3.4 | 2.4 mg/day and 4.4 mg/day and 3.2 mg/day | 2.1 | 1.5 mg/day and 2.6 mg/day and 2.1 mg/day | 2.0 | 0.9 mg/day and 1.7 mg/day and 3.5 mg/day | amount of proteinurea, Average [2, 23]: 8 mg/day; amount of proteinurea [2, 23]: 9 mg/day and 8 mg/day and 6 mg/day; amount of proteinurea compared with healthy rat ([2]; from administration of NT to 10 days after, result in words): substantially the same as that of a healthy rat; Anti-Complement Activity Value (50% hemolysis inhibitory activity value) ([3]; OD413): 40 µg/mL |
